# In patent US7652037B2, “Methods of lowering lipid levels in a mammal” (City Of Hope, priority 2003, dated 2010):
# System: STZ-Diabetic Rats
# Experiment: Nitrotyrosine staining of kidney
# Assay type: in vivo, rat
# Description: Nitrotyrosine, a marker for protein oxidation, was used as an index of oxidative tissue damage caused by reactive nitrogen species. Immunohistochemical detection of nitrotyrosine was performed as reported previously (Forbes et al., Diabetes 51:3274-3282, 2002) and followed in this study with little modification. Briefly, formalin-fixed kidney sections (5 μm thick), taken from representative rats from each treatment group at 32 weeks, were mounted on slides, dewaxed and hydrated. After incubation with Proteinase K for 10 minutes, sections were incubated in 3% hydrogen peroxide for 20 minutes, blocked with normal porcine serum for 20 minutes, and then stained with commercially available rabbit polyclonal anti-nitrotyrosine antibodies for 1 hour. After rinsing with DAKO rinse buffer, sections were incubated with biotinylated anti-rabbit IgG for 25 minutes, followed by incubation with avidin-biotin horseradish peroxidase complex for 25 minutes.
substance,measurement,value
"methylene bis(4,4′-(2-chlorophenylureidophenoxyisobutyric acid) [LR-90]",nitrotyrosine staining in renal cortical tubules,decreased the overall oxidative damage
